How the values were obtained:
VCAM-1 mRNA = assay: Quantification of hVCAM mRNA; type: cell-based, human; parameters: key: Active: an active compound is one that causes a ≥20% inhibition in VCAM-1 mRNA at a concentration less than or equal to 10 μM; -1 mRNA at a concentration less than or equal to 10 μM; details: VCAM-1 mRNA by real-time PCR; HUVECs, 1 h pretreatment, tumor necrosis factor-α stimulation 24 h; concentration ≤10 μM
How it was run: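 HUVECs were pretreated 1 h with compound, then stimulated with TNF-α and harvested 24 h later. Isolated mRNA went into one-step qRT-PCR. hVCAM Ct values were normalized to an internal control and expressed as fold induction relative to control.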

hIL-6 mRNA = assay: Quantification of hIL-6 mRNA; type: cell-based, human; parameters: key: Active: an active compound is one that causes a ≥20% inhibition in IL-6 mRNA at a concentration less than or equal to 10 μM; details: IL-6 mRNA by real-time PCR; differentiated U937 cells, 1 h pretreatment, lipopolysaccharide stimulation 3 h; concentration ≤10 μM
How it was run: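 U937 cells, differentiated for 3 days, were pretreated with compound for 1 h and then stimulated with E. coli LPS for 3 h at 37 °C. IL-6 mRNA was quantified by one-step qRT-PCR, with Ct normalized to an internal control, and fold induction was expressed relative to control.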

| SMILES | Inhibition of VCAM-1 expression (VCAM-1 mRNA) | Inhibition of IL-6 expression (hIL-6 mRNA) | melting point |
| --- | --- | --- | --- |
| COc1cc(OCCN2CCCC2)cc(-c2nc3cc(OC)cc(OC)c3c(=O)[nH]2)c1 [5,7-Dimethoxy-2-(3-methoxy-5-(2-(pyrrolidin-1-yl)ethoxy)phenyl)quinazolin-4(3H)-one] | Active | Active | 159 to 160 °C |
| COc1cc(OC)c2c(=O)[nH]c(-c3cc(C)c(OCCN4C(=O)NC(c5ccccc5)C4=O)c(C)c3)nc2c1 (centres unmarked) [3-(2-(4-(5,7-Dimethoxy-4-oxo-3,4-dihydroquinazolin-2-yl)-2,6-dimethylphenoxy)ethyl)-5-phenylimidazolidine-2,4-dione] | Active | Active | 219.6 to 221.4 °C |
| Cc1cc(-c2nc3cccc(Cl)c3c(=O)[nH]2)cc(C)c1OCCN1CCCC1 [5-Chloro-2-(3,5-dimethyl-4-(2-(pyrrolidin-1-yl)ethoxy)phenyl)quinazolin-4(3H)-one] | Active | Active | 179 to 180 °C |
| COc1cc(OC)cc(-c2nc3ccc(Nc4ccncc4)cc3c(=O)[nH]2)c1 [2-(3,5-Dimethoxyphenyl)-6-(pyridin-4-ylamino)quinazolin-4(3H)-one] | Inactive | Active | 289 to 290 °C |
| COc1cccc2c(=O)[nH]c(-c3cc(C)c(OCCN4CCCC4)c(C)c3)nc12 [2-(3,5-Dimethyl-4-(2-(pyrrolidin-1-yl)ethoxy)phenyl)-8-methoxyquinazolin-4(3H)-one] | Active | Active | 231 to 232 °C |
| COc1ccc2c(=O)[nH]c(-c3cc(C)c(OCCN4CCCC4)c(C)c3)nc2c1 [2-(3,5-Dimethyl-4-(2-(pyrrolidin-1-yl)ethoxy)phenyl)-7-methoxyquinazolin-4(3H)-one] | Active | Active | 218 to 220 °C |
| COc1cc(OCCOc2ccccc2)cc2nc(-c3cc(C)nc(C)c3)[nH]c(=O)c12 [2-(2,6-Dimethylpyridin-4-yl)-5-methoxy-7-(2-phenoxyethoxy)quinazolin-4(3H)-one] | Active | Active | 223 to 224 °C |
| Cc1cc(-c2nc3ccc(CCN4CCOCC4)cc3c(=O)[nH]2)cc(C)n1 [2-(2,6-Dimethylpyridin-4-yl)-6-(2-morpholinoethyl)quinazolin-4(3H)-one] | Inactive | Active | 248.5 to 249.3 °C |
| COc1cc(OCCOc2ccccc2)c2c(=O)[nH]c(-c3cc(C)nc(C)c3)nc2c1 [2-(2,6-Dimethylpyridin-4-yl)-7-methoxy-5-(2-phenoxyethoxy)quinazolin-4(3H)-one] | Active | Active | 172.3 to 173.2 °C |
| COCCOc1cc(OC)c2c(=O)[nH]c(-c3cc(C)nc(C)c3)nc2c1 [2-(2,6-Dimethylpyridin-4-yl)-5-methoxy-7-(2-methoxyethoxy)quinazolin-4(3H)-one] | – | Active | 228.8 to 230.4 °C |
| COc1cc(OC)c2c(=O)[nH]c(-c3ccc(CN4C(=O)CNC4=O)cc3)nc2c1 [3-(4-(5,7-Dimethoxy-4-oxo-3,4-dihydroquinazolin-2-yl)benzyl)imidazolidine-2,4-dione] | Active | Active | 317 to 318 °C |
| COc1cc(OC)c2c(=O)n(CCCN3CCCC3)c(-c3cc(C)c(OCCCN4CCCC4)c(C)c3)nc2c1 [2-(3,5-Dimethyl-4-(3-(pyrrolidin-1-yl)propoxy)phenyl)-5,7-dimethoxy-3-(3-(pyrrolidin-1-yl)propyl)quinazolin-4(3H)-one] | – | Active | 109 to 111 °C |
| COc1cc(OC)c2c(=O)[nH]c(-c3ccc(OCCN4CCCC4)c(C)c3)nc2c1 [5,7-Dimethoxy-2-(3-methyl-4-(2-(pyrrolidin-1-yl)ethoxy)phenyl)quinazolin-4(3H)-one] | Active | Active | 230 to 231 °C |
| COc1cc(OC)c2c(=O)[nH]c(-c3cc(C)c(OCCN4CC(NC(C)=O)C4)c(C)c3)nc2c1 [N-(1-(2-(4-(5,7-Dimethoxy-4-oxo-3,4-dihydroquinazolin-2-yl)-2,6-dimethylphenoxy)ethyl)azetidin-3-yl)acetamide] | – | Active | 111.8 to 113.6 °C |
| COc1cc(OC)c2c(=O)[nH]c(-c3ccc(Cc4nnn[nH]4)cc3)nc2c1 [2-(4-((1H-Tetrazol-5-yl)methyl)phenyl)-5,7-dimethoxyquinazolin-4(3H)-one] | – | Active | 295 to 296 °C |
| COc1cc(OC)c2c(=O)[nH]c(-c3cc(C)c(OCCN4CCC4)c(C)c3)nc2c1 [2-(4-(2-(Azetidin-1-yl)ethoxy)-3,5-dimethylphenyl)-5,7-dimethoxyquinazolin-4(3H)-one] | – | Active | 204 to 205 °C |
| Cc1cc(C)c2c(=O)[nH]c(-c3cc(C)c(OCCN4CCCC4)c(C)c3)nc2c1 [2-(3,5-Dimethyl-4-(2-(pyrrolidin-1-yl)ethoxy)phenyl)-5,7-dimethylquinazolin-4(3H)-one] | – | Active | 181 to 182 °C |
| Cc1cc(-c2nc3c(Cl)cccc3c(=O)[nH]2)cc(C)c1OCCN1CCCC1 [8-Chloro-2-(3,5-dimethyl-4-(2-(pyrrolidin-1-yl)ethoxy)phenyl)quinazolin-4(3H)-one] | – | Active | 216 to 217 °C |
| COc1cc(OC)c2c(=O)[nH]c(-c3ccc(OCCN4CCCC4)cc3)nc2c1 [5,7-Dimethoxy-2-(4-(2-(pyrrolidin-1-yl)ethoxy)phenyl)quinazolin-4(3H)-one] | – | Active | 226 to 227 °C |
| Cc1cc(-c2nc3ccc(CN4CCN(C)CC4)cc3c(=O)[nH]2)cc(C)n1 [2-(2,6-Dimethylpyridin-4-yl)-6-((4-methylpiperazin-1-yl)methyl)quinazolin-4(3H)-one] | – | Active | 229 to 230 °C |
| COCCOc1cc(OC)c2c(=O)[nH]c(-c3ccc(N4C[C@@H](C)N(C(C)=O)[C@@H](C)C4)cc3)nc2c1 [2-(4-((3R,5S)-4-Acetyl-3,5-dimethylpiperazin-1-yl)phenyl)-5-methoxy-7-(2-methoxyethoxy)quinazolin-4(3H)-one] | – | Active | 225 to 227 °C |

From patent US11407719B2, “Anti-inflammatory agents” (Resverlogix Corp., priority 2009, dated 2022)
